Experimental data published in publication PMC10400981, “An expandable, modular de novo protein platform for precision redox engineering” (Proceedings of the National Academy of Sciences of the …, 2023).

What was measured:
[1] = target: T1, 4D2; experiment: […] Å crystal structure (MAD); hemin titration by UV/visible; nondenaturing MS; type: binding, synthetic construct
T1 construct: single-chain de novo four-helix bundle, 112 amino acids after TEV cleavage

[2] = target: T2, m4D2; experiment: hemin titration of apo-m4D2 by UV/visible; nondenaturing MS ([…]); type: binding, synthetic construct
T2 construct: monoheme redesign of 4D2

[3] = target: T2, m4D2; experiment: binding titration; 2D/3D NMR of the complex; design: species or system synthetic construct

Kd [1] | Kd [2] | SMILES | Kd [3]
< 5 nM | 4.2 nM | C=CC1=C(C)C2=Cc3c(C=C)c(C)c4[n]3[Fe][n]3c(c(C)c(CCC(=O)O)c3=CC3=NC(=C4)C(C)=C3CCC(=O)O)=CC1=N2 [heme B] | –
– | – | CC1=C(C)C2=[N+]3C1=Cc1c(C)c(CCC(=O)O)c4[n]1[Fe-]31[n]3c(c(C)c(C)c3=CC3=[N+]1C(=C4)C(CCC(=O)O)=C3C)=C2 (stereo not drawn) [Fe(III) DMDPIX] | 25 nM
